Measured values as given in the supplement of paper PMC5412046.
Where a name gives a salt, the structure may show the parent alone.

Experiments:
SB.mhdgc-1 = assay: AC50 for growth inhibition (viability) (log10 M); higher = less potent; settings: SB.mhdgc-1 (hereditary c.1380delA CDH1 gastric cancer)
Summary of the method: (§1)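 Dosing used a pintool to add 23 nL compound in DMSO to 1536 wells, each with 500 hereditary or sporadic patient-derived gastric cancer cells, across 11 threefold dilutions starting at a final 46 μM. Viability after 48 h was measured by CellTiter-Glo luminescence on a ViewLux. The log half-maximal activity concentration derives from a four-parameter fit of that viability normalised to DMSO, limited to high-quality curve classes.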

SB.msgc-1 = assay: as above; settings: SB.msgc-1 (sporadic gastric cancer)
Summary of the method: as §1

SMILES	AC50 for growth inhibition (log10 M) (SB.mhdgc-1)	AC50 for growth inhibition (log10 M) (SB.msgc-1)
CC(C)(O)/C=C\C(=O)[C@](C)(O)[C@H]1[C@H](O)C[C@]2(C)[C@@H]3CC=C4[C@@H](C=C(O)C(=O)C4(C)C)[C@]3(C)C(=O)C[C@@]12C [Cucurbitacin I]	-7.43	-5.98
OC[C@H]1O[C@@H]2[C@@H](OC\3=N\C(=N)\C=C/[N@@]23)[C@@H]1O [Cyclocytidine HCl]	-6.13	-5.43
C[C@@H]1CN[C@H]2[C@@H](C)[C@@]\3(CC[C@H]\4[C@@H]5C/C=C6/C[C@@H](O)CC[C@]6(C)[C@H]5CC4=C3C)O[C@@H]2C1 [Cyclopamine]	-4.68	-4.73
CC(=O)O[C@@]1(CC[C@H]2[C@@H]3\C=C(Cl)/C4=C/C(=O)[C@@H]5C[C@@H]5[C@]4(C)[C@H]3CC[C@]12C)C(C)=O [Cyproterone acetate]	-5.08	-4.68
O=C1\C=C/C=C2/[C@H]3CNC[C@H](C3)CN12 [Cytisine]	-6.03	-4.83
ClC/1=C(NCCN2CCOCC2)/C(=O)C3=C(C=CC=N3)C1=O [DA-3003-1]	-5.58	-5.18
CC(C)(C)c1nc(-c2cccc(N[S+](=O)([O-])c3c(F)cccc3F)c2F)c(-c2ccnc(N)n2)s1 [Dabrafenib]	-4.73	-4.88
O=C(/C=C/c1ccc(CN(CCO)CCc2c[nH]c3ccccc23)cc1)NO [Dacinostat]	-5.88	-6.63
CCOc1ccc(Cc2cc([C@@H]3O[C@H](CO)[C@@H](O)[C@H](O)[C@H]3O)ccc2Cl)cc1 [Dapagliflozin]	-5.18	-4.98
OC1=C(O)C2=C(\C=C/C(=O)O2)C=C1 [Daphnetin]	-5.78	-4.78
CN(C)[C@@H](CCOc1cccc2ccccc12)c1ccccc1 [Dapoxetine hydrochloride]	-5.48	-4.73
COc1cccc2c1C(=O)c1c(O)c3c(c(O)c1C2=O)C[C@@](O)(C(C)=O)C[C@@H]3O[C@H]1C[C@H](N)[C@H](O)[C@H](C)O1 [Daunorubicin]	-7.28	-6.93
C[C@@H]1C[C@H]2[C@@H]3\C=C(C)/C4=C/C5=C(C[C@]4(C)[C@H]3[C@@H](O)C[C@]2(C)[C@@]1(O)C(=O)CO)C=N[N]5C6=CC=CC=C6 [Deacetyl cortivazol]	-5.63	-5.08
CCC[C@H](NC(=O)/C(C#N)=C/c1cccc(Br)n1)c1ccccc1 [Degrasyn]	-5.58	-5.43
COC1=CC2=C(C=C1OC)[C@H]3[C@@H](CO2)OC4=C(C=CC5=C4\C=C/C(C)(C)O5)C3=O [Deguelin]	-5.38	-5.23
C[C@]12CC[C@H]3[C@@H](C\C=C/4C[C@@H](O)CC[C@]34C)[C@@H]1CCC2=O [Dehydroepiandrosterone]	-5.78	-4.78
CC(C)C[C@H](NC(=O)[C@@H](NC(=O)c1cccc(-c2ccccc2)n1)[C@@H](C)O)B(O)O [Delanzomib]	-7.38	-7.43
CN[C@H]1CCC2=CC(=C(OC)C(=C2C/3=C/C=C(OC)\C(=O)/C=C13)OC)OC [Demecolcine]	-8.13	-8.83
ClC1=CC=C(C=C1)C(C#N)C2=C(Cl)C=C(C=C2Cl)N3\N=C/C(=O)NC3=O (centres undefined) [Diclazuril]	-4.78	-4.73
CC/C(=C(/CC)c1ccc(O)cc1)c1ccc(O)cc1 [Diethylstilbestrol]	-5.53	-4.83
C[C@H]1O[C@H](C[C@H](O)[C@@H]1O)O[C@H]2[C@@H](O)C[C@@H](O[C@@H]2C)O[C@H]3[C@@H](O)C[C@@H](O[C@@H]3C)O[C@H]4CC[C@@]5(C)[C@H](CC[C@@H]6[C@@H]5C[C@@H](O)[C@]7(C)[C@H](CC[C@]67O)C/8=C/C(=O)OC8)C4 [Digoxin]	-6.62	-6.62
O=C1c2c(O)cc(O)cc2O[C@H](c2cc(O)c(O)c(O)c2)[C@H]1O [Dihydromyricetin]	-5.33	-5.23
c1ccc2c(Cc3c[nH]c4ccccc34)c[nH]c2c1 [Diindolylmethane]	-6.13	-5.63
COC(=O)/C=C/C(=O)OC [Dimethyl fumarate]	-5.68	-5.48

SMILES	AC50 for growth inhibition (log10 M) (SB.mhdgc-1)	AC50 for growth inhibition (log10 M) (SB.msgc-1)
CCc1cnn2c(NCc3ccc[n+]([O-])c3)cc(N3CCCC[C@H]3CCO)nc12 [Dinaciclib]	-8.03	-7.88
C[C@@H]1CC[C@@]2(OC1)O[C@H]3C[C@H]4[C@@H]5C/C=C6/C[C@H](CC[C@]6(C)[C@H]5CC[C@]4(C)[C@H]3[C@@H]2C)O[C@@H]7O[C@H](CO)[C@@H](O[C@@H]8O[C@@H](C)[C@H](O)[C@@H](O)[C@H]8O)[C@H](O)[C@H]7O[C@@H]9O[C@@H](C)[C@H](O)[C@@H](O)[C@H]9O [Dioscin]	-5.38	-5.23
COC1=CC=C(C=C1O)C/2=C/C(=O)C3=C(O2)C=C(O[C@@H]4O[C@H](CO[C@@H]5O[C@@H](C)[C@H](O)[C@@H](O)[C@H]5O)[C@@H](O)[C@H](O)[C@H]4O)C=C3O [Diosmin]	-5.03	-5.58
CCN(CC)C(=S)SSC(=S)N(CC)CC [Disulfiram]	-7.78	-7.28
c1cc(-c2cnn3cc(-c4ccc(OCCN5CCCCC5)cc4)cnc23)ccn1 [Dorsomorphin]	-4.83	-4.78
CCOC(=O)N1CCN(/[N+]([O-])=N/Oc2cc(O/N=[N+](\[O-])N3CCN(C(=O)OCC)CC3)c([N+](=O)[O-])cc2[N+](=O)[O-])CC1 [Double JS-K]	-5.03	-4.63
CN1CCN(CC1)C2=CC3=C([NH]C(=N3)C/4=C(\N)C5=C(F)C=CC=C5NC4=O)C=C2 [Dovitinib]	-4.78	-4.73
C=C1/C(=C\C=C2/CCC[C@]3(C)[C@@H]([C@H](C)/C=C/[C@H](C)C(C)C)CC[C@@H]23)C[C@@H](O)C[C@@H]1O [Doxercalciferol]	-6.73	-6.23
C[C@H]1O[C@H]([C@H](O)[C@@H]1O)N2\C=C(F)/C(=O)NC2=O [Doxifluridine]	-6.18	-5.33
COc1cccc2c1C(=O)c1c(O)c3c(c(O)c1C2=O)C[C@@](O)(C(=O)CO)C[C@@H]3O[C@H]1C[C@H](N)[C@H](O)[C@H](C)O1 [Doxorubicin]	-7.33	-6.43
CCCCc1oc2ccc(NS(C)(=O)=O)cc2c1C(=O)c1ccc(OCCCN(CCCC)CCCC)cc1 [Dronedarone]	-4.73	-4.63
Cc1cc(Cl)ccc1OCCCC(=O)NO [Droxinostat]	-5.98	-4.83
CNCC[C@H](Oc1cccc2ccccc12)c1cccs1 [Duloxetine hydrochloride]	-5.53	-5.58
C[C@]12CC[C@H]3[C@@H](CC[C@H]4NC(=O)\C=C/[C@]34C)[C@@H]1CC[C@@H]2C(=O)NC5=CC(=CC=C5C(F)(F)F)C(F)(F)F [Dutasteride]	-4.78	-4.93
CCOc1cc2c(c(F)c1OCC)C(=N)N(CC(=O)c1cc(N3CCOCC3)c(OC)c(C(C)(C)C)c1)C2 [E5555]	-5.03	-4.68
COc1ccc([S+](=O)([O-])Nc2cccnc2Nc2ccc(O)cc2)cc1 [E-7010]	-5.83	-6.93
Cc1ccccc1C(=O)c1ccc(Nc2ccc(Br)cc2N)cc1Cl [EO-1428]	-4.93	-4.78
CC1(C)C(N(O)C(=O)Nc2ccc(Cl)cc2)N(c2ccc(Cl)cc2)C(=O)N1CC(=O)N/N=C/C=C/c1ccc([N+](=O)[O-])o1 (centres undefined) [Eeyarestatin I]	-5.08	-5.03
CCC(=C/[C@H](C)C/C=C/C(C)=C/[C@@H](C)C(=O)[C@@H](C)[C@H](O)[C@@H](C)C/C(C)=C/C(=O)O)/C=C/[C@@H]1OC(=O)C=C[C@@H]1C [Elactocin]	-7.66	-7.06
COC1=CC2=C(C=C1CC3=C(F)C(=CC=C3)Cl)C(=O)\C(=C/N2[C@H](CO)C(C)C)C(O)=O [Elvitegravir]	-4.78	-4.68
CC[C@H]1CN2CCc3cc(OC)c(OC)cc3[C@@H]2C[C@@H]1C[C@H]1NCCc2cc(OC)c(OC)cc21 [Emetine]	-5.68	-6.83
NC/1=N/C(=O)C2=C(N1)[N](C=N2)[C@@H]3C[C@H](O)[C@@H](CO)C3=C [Entecavir]	-4.78	-5.28
Nc1ccccc1NC(=O)c1ccc(CNC(=O)OCc2cccnc2)cc1 [Entinostat]	-4.83	-5.88
